Reference: US20250082630A1, “METHODS OF TREATING BRAIN TUMOURS AND NEUROBLASTOMAS” (AstraZeneca AB, priority 2021, published 2025)
Where two headings read alike, the source gives them in different places.

Tests used:
[1] = molecular target: PARP1 (Homo sapiens (Human), UniProt P09874); test: PARP fluorescence anisotropy binding assay, PARP1
Experimental: Recombinant full length 6HIS tagged PARP1 protein was diluted to 6 nM with 50 mM Tris pH 8, 0.001% Triton X100, 10 mM MgCl2, 150 mM NaCl and incubated for four hours with an equivalent volume of 2 nM fluorescent probe diluted with 50 mM Tris pH 8, 0.001% Triton X100, 10 mM MgCl2, 150 mM NaCl. The final DMSO concentration of the probe was kept below 1% (v/v).

[2] = molecular target: PARP3 (Homo sapiens (Human), UniProt Q9Y6F1); test: PARP fluorescence anisotropy binding assay, PARP3
Experimental: Recombinant full length PARP3 protein was diluted to 100 nM with 50 mM Tris pH 8, 0.001% Triton X100, 10 mM MgCl2, 150 mM NaCl and incubated for four hours with an equivalent volume of 6 nM fluorescent probe diluted with 50 mM Tris pH 8, 0.001% Triton X100, 10 mM MgCl2, 150 mM NaCl. The final DMSO concentration of the probe was kept below 1% (v/v).

[3] = molecular target: PARP5a (Homo sapiens (Human), UniProt O95271); test: PARP fluorescence anisotropy binding assay, PARP5a
Sequence of PARP5a (O95271 1112-1317): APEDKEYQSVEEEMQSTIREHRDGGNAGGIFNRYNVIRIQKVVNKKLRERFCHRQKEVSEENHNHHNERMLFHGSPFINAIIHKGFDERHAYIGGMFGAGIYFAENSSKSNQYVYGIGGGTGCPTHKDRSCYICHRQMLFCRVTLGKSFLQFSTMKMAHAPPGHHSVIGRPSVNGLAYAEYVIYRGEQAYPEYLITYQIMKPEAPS
Experimental: Recombinant PARP5a binding domain was diluted to 160 nM with 50 mM Tris pH 8, 0.001% Triton X100, 10 mM MgCl2, 150 mM NaCl and incubated for four hours with an equivalent volume of 6 nM fluorescent probe diluted with 50 mM Tris pH 8, 0.001% Triton X100, 10 mM MgCl2, 150 mM NaCl. The final DMSO concentration of the probe was kept below 1% (v/v).

[4] = molecular target: PARP6 (Homo sapiens (Human), UniProt Q2NL67); test: PARP fluorescence anisotropy binding assay, PARP6
Sequence of PARP6 (Q2NL67 whole entry): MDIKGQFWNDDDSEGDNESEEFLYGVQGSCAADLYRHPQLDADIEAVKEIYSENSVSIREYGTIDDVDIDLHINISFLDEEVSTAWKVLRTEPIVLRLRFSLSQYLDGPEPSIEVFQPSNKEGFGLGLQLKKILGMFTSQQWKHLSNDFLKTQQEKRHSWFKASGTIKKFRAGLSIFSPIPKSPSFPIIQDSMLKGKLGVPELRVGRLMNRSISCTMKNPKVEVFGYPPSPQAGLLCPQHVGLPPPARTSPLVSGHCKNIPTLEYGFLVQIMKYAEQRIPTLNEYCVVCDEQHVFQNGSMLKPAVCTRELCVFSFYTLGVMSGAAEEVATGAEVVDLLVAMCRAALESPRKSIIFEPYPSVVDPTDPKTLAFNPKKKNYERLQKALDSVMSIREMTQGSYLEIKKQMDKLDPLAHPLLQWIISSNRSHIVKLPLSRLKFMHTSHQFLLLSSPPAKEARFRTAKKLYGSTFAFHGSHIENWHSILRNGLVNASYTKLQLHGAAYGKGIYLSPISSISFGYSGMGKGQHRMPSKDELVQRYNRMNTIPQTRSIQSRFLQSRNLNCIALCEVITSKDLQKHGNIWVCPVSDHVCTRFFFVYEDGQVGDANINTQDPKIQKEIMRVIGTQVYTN
Experimental: Recombinant full length GST tagged PARP6 protein was diluted to 160 nM with 50 mM Tris pH 8, 0.001% Triton X100, 10 mM MgCl2, 150 mM NaCl and incubated for four hours with an equivalent volume of 6 nM fluorescent probe diluted with 50 mM Tris pH 8, 0.001% Triton X100, 10 mM MgCI2, 150 mM NaCl. The final DMSO concentration of the probe was kept below 1% (v/v).
Fluorescence anisotropy of the probe when bound to the proteins was measured using a BMG Pherastar FSX® in the presence of test compounds or solvent control and the effect on anisotropy determined. % inhibition values for different test compound concentrations were calculated and fitted to a four parameter logistic plot in order to determine the IC50 value. Where necessary, the compound K, can be determined from the IC50 value using a Munson Rodbard equation defined in Anal Biochem. 1980 Sep. 1; 107(1):220-39 and is based on the known KD of the probe binding to the relevant PARP protein

[5] = tested on: BRCA2 (−/−) DLD1 cells; test: PARP proliferation assay (7 day compound dosing), BRCA2 (−/−) DLD1; format: cell-based; details: read-out: BRCA2 −/− DLD-1 prolif. 7 d IC50
Experimental: (§1) DLD1 and BRCA2 (−/−) DLD1 cells were harvested to a density of 5000 cells/ml and 2.5E4 cells/ml respectively in complete media, 40 μL/well seeded into 384-well plates (Greiner, Kremsmunster, Austria; 781090) using a Multidrop Combi then incubated at 37° C., 5% CO2 overnight. Next day (Day 1) using a Multidrop Combi add sytox green (5ul, 2 uM) and saponin (10 ul, 0.25% stock) to a day 0 plate, seal the plate using a black adhesive lid and incubate for >3 h at it. Cells were imaged using Cell Insight (Thermo Fisher) fitted with a 4x objective. Test compounds are added using an Echo 555 and placed in incubator maintained at 37° C., 5% CO2 and incubated for 7 days. On Day 8 add sytox green (5ul, 2 uM) and then saponin (10 ul, 0.25% stock) to plates, seal the plate using a black adhesive lid and incubate for >3 h at it. Read all cells on the Cell Insight with 4× Objective. The rate of proliferation is determined in Genedata by assessing the total cell number output from the Cell Insight for Day 0 and Day 8 plates.

[6] = molecular target: T1, hERG (Homo sapiens (Human), UniProt Q12809); test: hERG IC50
T1 sequence (Q12809 whole entry): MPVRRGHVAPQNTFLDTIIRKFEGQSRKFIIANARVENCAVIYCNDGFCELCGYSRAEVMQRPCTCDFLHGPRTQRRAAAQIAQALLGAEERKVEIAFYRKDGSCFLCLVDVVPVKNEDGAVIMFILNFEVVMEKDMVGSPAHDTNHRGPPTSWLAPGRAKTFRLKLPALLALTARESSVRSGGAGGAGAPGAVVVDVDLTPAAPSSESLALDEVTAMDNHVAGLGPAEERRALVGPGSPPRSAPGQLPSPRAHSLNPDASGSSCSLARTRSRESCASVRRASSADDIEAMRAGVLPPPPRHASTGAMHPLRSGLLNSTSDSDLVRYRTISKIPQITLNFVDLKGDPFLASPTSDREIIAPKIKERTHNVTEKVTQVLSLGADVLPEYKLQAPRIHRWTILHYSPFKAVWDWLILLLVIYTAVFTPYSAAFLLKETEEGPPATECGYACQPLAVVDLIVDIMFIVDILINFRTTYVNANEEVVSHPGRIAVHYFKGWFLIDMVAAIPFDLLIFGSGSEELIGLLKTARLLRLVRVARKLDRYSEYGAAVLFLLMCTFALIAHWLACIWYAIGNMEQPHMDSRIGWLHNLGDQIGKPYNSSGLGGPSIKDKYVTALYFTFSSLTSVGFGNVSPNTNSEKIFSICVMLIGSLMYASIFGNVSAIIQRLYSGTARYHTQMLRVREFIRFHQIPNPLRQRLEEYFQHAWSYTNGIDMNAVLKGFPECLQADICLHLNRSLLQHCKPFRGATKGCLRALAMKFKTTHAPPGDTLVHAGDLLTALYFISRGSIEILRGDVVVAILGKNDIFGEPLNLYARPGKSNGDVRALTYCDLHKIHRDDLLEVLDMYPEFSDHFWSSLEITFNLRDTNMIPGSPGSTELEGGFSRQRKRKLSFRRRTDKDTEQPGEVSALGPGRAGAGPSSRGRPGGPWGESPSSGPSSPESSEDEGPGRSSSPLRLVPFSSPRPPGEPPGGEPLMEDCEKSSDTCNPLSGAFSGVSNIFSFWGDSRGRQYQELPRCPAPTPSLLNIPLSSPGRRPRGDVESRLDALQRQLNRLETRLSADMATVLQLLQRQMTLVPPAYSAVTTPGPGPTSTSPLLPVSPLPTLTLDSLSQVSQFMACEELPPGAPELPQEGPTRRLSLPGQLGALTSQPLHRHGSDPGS

[7] = tested on: MDCKII cells expressing MDR1 and BCRP; test: In vitro human transporter efflux (MDCK-MDR1-BCRP); details: Papp(B to A)/Papp(A to B), 90-min incubation
Experimental: (§2) MDCKII cells expressing MDR1 and BCRP were seeded onto polyethylene membranes in 96-well Transwell insert systems at a density to form a confluent cell monolayer. […] The final percent volume of the organic solvent was less than 1%. Permeation of the test compounds from A to B direction and from B to A direction was determined over a 90-min incubation at 37° C. and 5% CO2 with a relative humidity of 95%. At the end of the incubation, samples from the apical and basolateral side were taken and then precipitated with cold acetonitrile containing internal standard. After centrifugation at 4000 rpm, the supernatant was diluted with 0.1% formic acid aqueous solution and quantified by LC-MS/MS. The integrity of the cell monolayers was confirmed by using the marker Lucifer yellow.
(§3) The permeability coefficient (1×10-6 cm/s) was calculated using the following equation
(§4) (1) The Efflux Ratio was Calculated Using the Following Equation
Efflux ratio=Papp(B to A)/Papp(A to B)
(§5) (2) where dCr/dt is the cumulative concentration of the compound in the receiver chamber as a function of time (in μM/s); Vr is the solution volume in the receiver chamber (0.1 ml on the apical side and 0.3 ml on the basolateral side); A is the surface area for the transport, that is, 0.11 cm2 for the area of the monolayer; and C0 is the initial concentration in the donor chamber (in μM).

[8] = molecular target: PARP2 (Homo sapiens (Human), UniProt Q9UGN5); test: PARP fluorescence anisotropy binding assay, PARP2
Sequence of PARP2 (Q9UGN5 whole entry): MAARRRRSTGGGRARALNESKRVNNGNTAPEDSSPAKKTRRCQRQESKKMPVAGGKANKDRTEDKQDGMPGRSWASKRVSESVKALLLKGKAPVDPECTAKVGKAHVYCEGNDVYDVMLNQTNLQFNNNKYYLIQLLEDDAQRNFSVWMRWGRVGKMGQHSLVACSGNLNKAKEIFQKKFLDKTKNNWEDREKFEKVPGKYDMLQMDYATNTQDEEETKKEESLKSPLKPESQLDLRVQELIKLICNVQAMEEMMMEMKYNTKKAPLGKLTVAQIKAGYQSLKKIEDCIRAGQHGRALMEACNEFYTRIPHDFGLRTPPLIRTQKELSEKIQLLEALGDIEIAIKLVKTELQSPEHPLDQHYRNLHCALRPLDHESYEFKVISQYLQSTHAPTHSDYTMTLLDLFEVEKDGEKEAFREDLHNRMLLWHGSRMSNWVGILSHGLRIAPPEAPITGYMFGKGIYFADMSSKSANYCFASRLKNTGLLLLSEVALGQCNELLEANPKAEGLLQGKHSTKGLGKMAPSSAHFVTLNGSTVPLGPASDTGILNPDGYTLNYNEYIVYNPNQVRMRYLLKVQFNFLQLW
Summary of the method: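 Recombinant full-length human PARP2 (6 nM before mixing) incubated 4 h with equal volume of 2 nM fluorescent probe in 50 mM Tris pH 8, 10 mM MgCl2, 150 mM NaCl, 0.001% Triton X100. Compound displacement measured as change in probe fluorescence anisotropy; IC50 from four-parameter logistic fit.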

[9] = tested on: DLD1 cells; test: PARP proliferation assay (7 day compound dosing), WT DLD1; format: cell-based; details: read-out: WT DLD-1 prolif. 7 d IC50
Experimental: as §1

[10] = molecular target: T1, hERG
[11] = tested on: MDCKII cells expressing MDR1 and BCRP
Experimental: as §2, §3, §4
Efflux ratio=Papp(B to A)/Papp(A to B)
as §5

[12] = 30 mg/m^2 per day, days 1, 2 and 3 every 21 days, in combination with radiation therapy; cited from earlier work

Sequence of PARP3 (Q9Y6F1 whole entry): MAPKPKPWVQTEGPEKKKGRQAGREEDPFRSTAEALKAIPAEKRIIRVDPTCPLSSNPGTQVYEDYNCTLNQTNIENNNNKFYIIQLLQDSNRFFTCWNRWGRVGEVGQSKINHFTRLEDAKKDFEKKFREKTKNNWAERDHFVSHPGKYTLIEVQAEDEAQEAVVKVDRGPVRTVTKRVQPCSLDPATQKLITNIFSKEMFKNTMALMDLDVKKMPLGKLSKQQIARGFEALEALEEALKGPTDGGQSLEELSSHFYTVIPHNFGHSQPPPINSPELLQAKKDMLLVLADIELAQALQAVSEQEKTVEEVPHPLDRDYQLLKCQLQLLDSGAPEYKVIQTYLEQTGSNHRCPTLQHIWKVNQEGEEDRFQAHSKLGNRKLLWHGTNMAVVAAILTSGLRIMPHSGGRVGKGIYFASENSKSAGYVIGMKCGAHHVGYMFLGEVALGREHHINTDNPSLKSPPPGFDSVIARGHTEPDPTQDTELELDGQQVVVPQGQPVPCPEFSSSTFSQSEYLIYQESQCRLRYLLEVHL
Sequence of PARP1 (P09874 whole entry): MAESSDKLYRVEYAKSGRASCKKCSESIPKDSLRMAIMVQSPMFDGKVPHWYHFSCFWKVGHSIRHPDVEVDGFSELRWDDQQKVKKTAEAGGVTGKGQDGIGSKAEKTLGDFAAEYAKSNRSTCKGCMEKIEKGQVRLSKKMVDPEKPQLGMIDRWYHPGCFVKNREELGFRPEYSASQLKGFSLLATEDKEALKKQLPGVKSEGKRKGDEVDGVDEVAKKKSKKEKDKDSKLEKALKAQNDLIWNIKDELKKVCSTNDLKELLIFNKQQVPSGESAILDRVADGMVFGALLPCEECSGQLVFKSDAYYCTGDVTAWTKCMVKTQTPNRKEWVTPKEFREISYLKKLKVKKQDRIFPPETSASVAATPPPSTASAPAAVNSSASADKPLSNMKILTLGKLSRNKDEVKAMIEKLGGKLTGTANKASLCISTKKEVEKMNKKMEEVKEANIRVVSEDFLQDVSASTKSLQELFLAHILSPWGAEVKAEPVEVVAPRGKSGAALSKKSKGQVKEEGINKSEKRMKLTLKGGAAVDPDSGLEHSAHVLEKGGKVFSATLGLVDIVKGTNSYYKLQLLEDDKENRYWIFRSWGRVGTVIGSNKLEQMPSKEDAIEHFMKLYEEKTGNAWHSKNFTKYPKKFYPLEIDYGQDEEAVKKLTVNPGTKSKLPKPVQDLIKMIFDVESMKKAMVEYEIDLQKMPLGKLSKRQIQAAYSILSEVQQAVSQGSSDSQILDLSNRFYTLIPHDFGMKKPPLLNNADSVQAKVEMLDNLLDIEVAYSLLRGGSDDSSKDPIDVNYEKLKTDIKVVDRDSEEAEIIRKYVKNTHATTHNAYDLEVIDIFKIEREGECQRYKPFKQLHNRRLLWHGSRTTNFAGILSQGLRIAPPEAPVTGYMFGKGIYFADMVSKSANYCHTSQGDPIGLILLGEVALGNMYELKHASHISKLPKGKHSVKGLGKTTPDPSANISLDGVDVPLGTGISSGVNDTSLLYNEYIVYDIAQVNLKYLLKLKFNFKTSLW

For `CNC(=O)c1ccc(N2CCN(Cc3ccc4nc([C@H](C)F)c(=O)[nH]c4c3F)CC2)c(F)n1` (single isomer, unassigned) [Example 12, 6-fluoro-5-[4-[[5-fluoro-2-[(1S OR 1R)-1-fluoroethyl]-3-oxo-4H-quinoxalin-6-yl]methyl]piperazin-1-yl]-N-methyl-pyridine-2-carboxamide], the IC50 [1] was 0.015 µM, the IC50 [2] was 85 µM and the IC50 [3] was > 100 µM. The IC50 [4] was > 100 µM, the IC50 [5] was 0.008 µM and the IC50 ([6]; read-out: hERG IC50) was > 40 µM. For the same compound, the “MDCK-MDR1-BCRP Efflux Ratio” value [7] was 4.2.

With `CNC(=O)c1ccc(N2CCN(Cc3ccc4nc([C@H](C)F)c(=O)[nH]c4c3F)CC2)c(F)n1` (single isomer, unassigned) [Example 13, 6-fluoro-5-[4-[[5-fluoro-2-[(1S OR 1R)-1-fluoroethyl]-3-oxo-4H-quinoxalin-6-yl]methyl]piperazin-1-yl]-N-methyl-pyridine-2-carboxamide] the IC50 [1] was 0.009 µM, the IC50 [8] was > 100 µM and the IC50 [2] was 62 µM. For the same compound, the IC50 [3] was > 100 µM, the IC50 [4] was > 100 µM and the IC50 [5] was 0.019 µM. For the same compound, the IC50 [9] was 22 µM, the IC50 [10] was > 40 µM and the “MDCK-MDR1-BCRP Efflux Ratio” value [11] was 3.0.

With `CNC(=O)c1ccc(N2CCN(Cc3ccc4nc(C(C)F)c(=O)[nH]c4c3F)CC2)c(C)n1` (single isomer, unassigned) [Example 14, 5-[4-[[5-fluoro-2-[(1S OR 1R)-1-fluoroethyl]-3-oxo-4H-quinoxalin-6-yl]methyl]piperazin-1-yl]-N,6-dimethyl-pyridine-2-carboxamide] the IC50 [1] was 0.013 µM, the IC50 [8] was > 83 µM and the IC50 [2] was 52 µM. The IC50 [3] was > 100 µM, the IC50 [4] was > 100 µM and the IC50 [5] was 0.015 µM. The IC50 ([6]; read-out: hERG IC50) was > 40 µM and the “MDCK-MDR1-BCRP Efflux Ratio” value [7] was 3.7.

For `CNC(=O)c1ccc(N2CCN(Cc3ccc4nc(C(C)F)c(=O)[nH]c4c3F)CC2)c(C)n1` (single isomer, unassigned) [Example 15, 5-[4-[[5-fluoro-2-[(1S OR 1R)-1-fluoroethyl]-3-oxo-4H-quinoxalin-6-yl]methyl]piperazin-1-yl]-N,6-dimethyl-pyridine-2-carboxamide], the IC50 [1] was 0.012 µM, the IC50 [8] was > 100 µM and the IC50 [2] was 43 µM. For the same compound, the IC50 [3] was > 100 µM, the IC50 [4] was > 100 µM and the IC50 [5] was 0.014 µM. For the same compound, the IC50 ([6]; read-out: hERG IC50) was > 38 µM and the “MDCK-MDR1-BCRP Efflux Ratio” value [7] was 3.7.

With `CNC(=O)c1ccc(N2CCN(Cc3ccc4ncc(=O)[nH]c4c3F)CC2)c(Cl)n1` [Example 34, 6-chloro-5-[4-[(5-fluoro-3-oxo-4H-quinoxalin-6-yl)methyl]piperazin-1-yl]-N-methyl-pyridine-2-carboxamide] the IC50 [1] was 0.026 µM, the IC50 [8] was > 100 µM and the IC50 [6] was 29 µM.

For `O[C@H]([C@H](O)[C@@H]1CO1)[C@H]1CO1` [VAL-083, dianhydrogalactitol], the safety and tolerability [12] is given as “generally safe and well tolerated”.
